From the kinase profiling compilation of Christmann-Franck et al. (2016)
pKd: −log10 of the molar value.

Legend:
Assay in all cases: KINOMEscan competition binding
ABL1 (human) = ABL1 (human) (UniProt P00519)
MST1R (human) = MST1R (human) (UniProt Q04912)
RPS6KA4 KD2 (human) = RPS6KA4 KD2 (human) (UniProt O75676)
CDC42BPB (human) = CDC42BPB (human) (UniProt Q9Y5S2)
[1] = molecular target: FLT3 (human), P36888 [K663Q]
AURKB (human) = AURKB (human) (UniProt Q96GD4)
CSNK1D (human) = CSNK1D (human) (UniProt P48730)
TEK (human) = TEK (human) (UniProt Q02763)
[2] = molecular target: ABL1 (human), P00519 [F317L]
MAP4K3 (human) = MAP4K3 (human) (UniProt Q8IVH8)
BMX (human) = BMX (human) (UniProt P51813)
CaMK1 (human) = CaMK1 (human) (UniProt Q14012)
MAP4K1 (human) = MAP4K1 (human) (UniProt Q92918)
MAPK11 (human) = MAPK11 (human) (UniProt Q15759)
MYLK2 (human) = MYLK2 (human) (UniProt Q9H1R3)
FGFR2 (human) = FGFR2 (human) (UniProt P21802)
RIOK2 (human) = RIOK2 (human) (UniProt Q9BVS4)
CAMK1G (human) = CAMK1G (human) (UniProt Q96NX5)
STK4 (human) = STK4 (human) (UniProt Q13043)
PRKACA (human) = PRKACA (human) (UniProt P17612)
MERTK (human) = MERTK (human) (UniProt Q12866)
[3] = molecular target: EIF2AK4 KD2 (human), Q9P2K8 [S808G]
PTK2 (human) = PTK2 (human) (UniProt Q05397)
[4] = molecular target: MET (human), P08581 [M1250T]
AXL (human) = AXL (human) (UniProt P30530)
BTK (human) = BTK (human) (UniProt Q06187)
AURKC (human) = AURKC (human) (UniProt Q9UQB9)
CDK11B (human) = CDK11B (human) (UniProt P21127)
MAP2K4 (human) = MAP2K4 (human) (UniProt P45985)
HUNK (human) = HUNK (human) (UniProt P57058)
SIK2 (human) = SIK2 (human) (UniProt Q9H0K1)
HCK (human) = HCK (human) (UniProt P08631)
[5] = molecular target: ABL1 (human), P00519 [T315I]
RPS6KA4 KD1 (human) = RPS6KA4 KD1 (human) (UniProt O75676)
CSNK1G1 (human) = CSNK1G1 (human) (UniProt Q9HCP0)
CIT (human) = CIT (human) (UniProt O14578)
PIK3CG (human) = PIK3CG (human) (UniProt P48736)
[6] = molecular target: PIK3CA (human), P42336 [E542K]
MAP3K10 (human) = MAP3K10 (human) (UniProt Q02779)
SYK (human) = SYK (human) (UniProt P43405)

Sequence of MAP3K10 (human) (Q02779 whole entry, looked up): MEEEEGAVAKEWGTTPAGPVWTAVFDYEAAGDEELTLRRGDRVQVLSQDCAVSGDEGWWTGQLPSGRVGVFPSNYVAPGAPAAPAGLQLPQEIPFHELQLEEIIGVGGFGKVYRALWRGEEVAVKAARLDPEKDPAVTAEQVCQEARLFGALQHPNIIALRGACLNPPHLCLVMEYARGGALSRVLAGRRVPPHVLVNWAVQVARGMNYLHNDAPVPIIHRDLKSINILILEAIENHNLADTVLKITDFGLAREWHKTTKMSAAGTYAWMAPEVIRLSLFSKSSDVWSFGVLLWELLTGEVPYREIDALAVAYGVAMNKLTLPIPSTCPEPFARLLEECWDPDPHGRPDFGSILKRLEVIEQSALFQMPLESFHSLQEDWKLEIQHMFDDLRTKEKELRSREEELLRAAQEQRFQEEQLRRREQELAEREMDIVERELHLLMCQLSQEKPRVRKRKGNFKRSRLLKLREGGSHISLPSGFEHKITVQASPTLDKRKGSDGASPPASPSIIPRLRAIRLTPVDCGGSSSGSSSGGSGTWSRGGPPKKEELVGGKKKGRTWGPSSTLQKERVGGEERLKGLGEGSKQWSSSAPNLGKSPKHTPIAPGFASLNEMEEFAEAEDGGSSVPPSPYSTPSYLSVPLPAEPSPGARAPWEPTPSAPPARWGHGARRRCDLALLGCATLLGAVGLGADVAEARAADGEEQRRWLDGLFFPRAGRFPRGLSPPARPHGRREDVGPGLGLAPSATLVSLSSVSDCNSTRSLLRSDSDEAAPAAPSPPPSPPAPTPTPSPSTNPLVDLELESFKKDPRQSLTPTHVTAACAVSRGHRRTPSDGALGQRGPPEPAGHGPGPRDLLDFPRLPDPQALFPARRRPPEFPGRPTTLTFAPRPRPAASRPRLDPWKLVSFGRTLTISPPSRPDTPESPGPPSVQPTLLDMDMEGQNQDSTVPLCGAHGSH
Sequence of TEK (human) (Q02763 whole entry, looked up): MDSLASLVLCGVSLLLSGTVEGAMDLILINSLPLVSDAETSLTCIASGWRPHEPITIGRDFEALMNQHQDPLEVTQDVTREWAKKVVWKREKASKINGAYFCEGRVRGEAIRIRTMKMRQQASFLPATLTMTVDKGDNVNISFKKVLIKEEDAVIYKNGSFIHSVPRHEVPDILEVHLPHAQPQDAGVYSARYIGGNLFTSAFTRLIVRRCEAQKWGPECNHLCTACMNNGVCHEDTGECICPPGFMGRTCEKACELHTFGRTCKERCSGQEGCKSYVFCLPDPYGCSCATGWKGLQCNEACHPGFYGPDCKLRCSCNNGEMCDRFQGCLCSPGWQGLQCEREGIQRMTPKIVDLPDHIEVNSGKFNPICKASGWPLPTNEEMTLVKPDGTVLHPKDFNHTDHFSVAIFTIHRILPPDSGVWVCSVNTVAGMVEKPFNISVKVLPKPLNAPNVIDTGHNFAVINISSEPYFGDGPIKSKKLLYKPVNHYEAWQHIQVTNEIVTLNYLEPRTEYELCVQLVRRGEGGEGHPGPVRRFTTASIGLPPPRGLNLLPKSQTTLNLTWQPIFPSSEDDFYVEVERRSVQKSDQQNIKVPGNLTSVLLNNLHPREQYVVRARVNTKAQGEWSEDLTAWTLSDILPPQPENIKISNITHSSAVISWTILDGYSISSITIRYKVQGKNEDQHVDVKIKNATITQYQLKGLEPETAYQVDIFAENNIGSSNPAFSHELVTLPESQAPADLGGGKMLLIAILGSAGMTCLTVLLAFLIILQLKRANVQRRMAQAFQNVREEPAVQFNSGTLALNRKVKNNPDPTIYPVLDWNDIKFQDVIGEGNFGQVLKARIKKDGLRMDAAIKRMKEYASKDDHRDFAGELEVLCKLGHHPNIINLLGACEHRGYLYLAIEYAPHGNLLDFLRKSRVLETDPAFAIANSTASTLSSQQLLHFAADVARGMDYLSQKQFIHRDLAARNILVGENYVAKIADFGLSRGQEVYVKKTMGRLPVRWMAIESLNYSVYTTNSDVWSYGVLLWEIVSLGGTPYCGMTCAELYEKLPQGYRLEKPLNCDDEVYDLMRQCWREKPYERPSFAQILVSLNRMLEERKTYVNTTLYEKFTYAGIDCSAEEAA
Sequence of MST1R (human) (Q04912 whole entry, looked up): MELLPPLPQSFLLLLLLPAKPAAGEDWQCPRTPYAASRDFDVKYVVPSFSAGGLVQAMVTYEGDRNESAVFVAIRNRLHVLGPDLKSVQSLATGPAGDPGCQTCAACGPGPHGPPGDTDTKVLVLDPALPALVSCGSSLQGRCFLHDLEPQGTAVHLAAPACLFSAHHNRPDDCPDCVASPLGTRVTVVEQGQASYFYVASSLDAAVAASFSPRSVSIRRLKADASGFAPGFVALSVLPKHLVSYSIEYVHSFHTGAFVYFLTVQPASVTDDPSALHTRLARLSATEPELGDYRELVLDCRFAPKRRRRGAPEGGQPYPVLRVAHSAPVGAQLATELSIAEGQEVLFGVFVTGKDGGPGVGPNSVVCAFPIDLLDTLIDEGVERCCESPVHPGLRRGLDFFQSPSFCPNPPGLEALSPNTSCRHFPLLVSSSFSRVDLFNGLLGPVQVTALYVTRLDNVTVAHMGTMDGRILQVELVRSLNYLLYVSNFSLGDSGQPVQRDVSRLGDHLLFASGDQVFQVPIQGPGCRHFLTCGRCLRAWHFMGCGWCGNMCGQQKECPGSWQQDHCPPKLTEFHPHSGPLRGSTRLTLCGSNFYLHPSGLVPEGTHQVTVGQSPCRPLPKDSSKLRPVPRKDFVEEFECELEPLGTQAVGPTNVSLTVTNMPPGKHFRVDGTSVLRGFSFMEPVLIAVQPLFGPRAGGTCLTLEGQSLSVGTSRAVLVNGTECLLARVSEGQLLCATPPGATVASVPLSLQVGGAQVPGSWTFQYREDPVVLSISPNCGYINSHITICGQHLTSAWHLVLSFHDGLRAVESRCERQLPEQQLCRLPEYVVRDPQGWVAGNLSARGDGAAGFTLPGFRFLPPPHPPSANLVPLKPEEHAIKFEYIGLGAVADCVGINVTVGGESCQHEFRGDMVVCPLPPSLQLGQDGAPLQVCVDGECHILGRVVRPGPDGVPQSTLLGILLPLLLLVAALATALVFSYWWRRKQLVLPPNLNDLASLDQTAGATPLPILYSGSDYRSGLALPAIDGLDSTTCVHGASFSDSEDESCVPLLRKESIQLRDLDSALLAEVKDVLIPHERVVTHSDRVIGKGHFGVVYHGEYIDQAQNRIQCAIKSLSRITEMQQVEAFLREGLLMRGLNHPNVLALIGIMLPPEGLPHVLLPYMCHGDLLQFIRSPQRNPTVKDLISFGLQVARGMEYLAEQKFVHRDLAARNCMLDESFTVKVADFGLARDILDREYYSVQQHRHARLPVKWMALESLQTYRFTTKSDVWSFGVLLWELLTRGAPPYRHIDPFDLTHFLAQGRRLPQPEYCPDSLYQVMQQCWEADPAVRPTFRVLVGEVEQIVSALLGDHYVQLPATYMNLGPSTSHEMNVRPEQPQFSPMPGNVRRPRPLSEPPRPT
Sequence of BTK (human) (Q06187 whole entry, looked up): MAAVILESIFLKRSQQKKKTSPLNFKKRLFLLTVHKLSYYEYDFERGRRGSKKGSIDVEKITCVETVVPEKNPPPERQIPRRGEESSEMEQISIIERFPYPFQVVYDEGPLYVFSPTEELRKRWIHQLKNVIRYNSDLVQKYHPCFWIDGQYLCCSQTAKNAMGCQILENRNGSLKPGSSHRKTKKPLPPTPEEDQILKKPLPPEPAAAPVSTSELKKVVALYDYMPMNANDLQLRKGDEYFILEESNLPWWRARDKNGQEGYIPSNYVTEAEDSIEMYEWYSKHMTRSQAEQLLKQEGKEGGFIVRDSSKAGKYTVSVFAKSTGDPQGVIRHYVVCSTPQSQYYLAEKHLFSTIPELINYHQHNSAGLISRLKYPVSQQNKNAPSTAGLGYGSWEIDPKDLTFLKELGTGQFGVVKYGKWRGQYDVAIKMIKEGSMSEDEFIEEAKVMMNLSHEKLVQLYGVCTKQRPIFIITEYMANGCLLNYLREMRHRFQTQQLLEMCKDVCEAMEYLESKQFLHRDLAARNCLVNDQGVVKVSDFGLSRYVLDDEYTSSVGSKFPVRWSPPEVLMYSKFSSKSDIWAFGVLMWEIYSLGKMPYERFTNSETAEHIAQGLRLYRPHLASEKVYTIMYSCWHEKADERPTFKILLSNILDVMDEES
Sequence of MAP2K4 (human) (P45985 whole entry, looked up): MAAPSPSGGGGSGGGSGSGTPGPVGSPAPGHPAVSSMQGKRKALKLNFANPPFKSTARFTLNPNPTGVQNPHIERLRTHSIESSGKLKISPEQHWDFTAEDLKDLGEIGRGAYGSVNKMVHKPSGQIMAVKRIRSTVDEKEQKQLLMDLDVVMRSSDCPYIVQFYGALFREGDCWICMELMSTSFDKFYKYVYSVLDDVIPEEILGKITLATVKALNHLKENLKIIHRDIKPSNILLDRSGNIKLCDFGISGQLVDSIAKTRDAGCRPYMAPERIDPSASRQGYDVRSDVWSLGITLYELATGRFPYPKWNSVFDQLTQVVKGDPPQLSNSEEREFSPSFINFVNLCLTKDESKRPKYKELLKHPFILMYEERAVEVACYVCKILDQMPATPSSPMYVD
Sequence of CSNK1D (human) (P48730 whole entry, looked up): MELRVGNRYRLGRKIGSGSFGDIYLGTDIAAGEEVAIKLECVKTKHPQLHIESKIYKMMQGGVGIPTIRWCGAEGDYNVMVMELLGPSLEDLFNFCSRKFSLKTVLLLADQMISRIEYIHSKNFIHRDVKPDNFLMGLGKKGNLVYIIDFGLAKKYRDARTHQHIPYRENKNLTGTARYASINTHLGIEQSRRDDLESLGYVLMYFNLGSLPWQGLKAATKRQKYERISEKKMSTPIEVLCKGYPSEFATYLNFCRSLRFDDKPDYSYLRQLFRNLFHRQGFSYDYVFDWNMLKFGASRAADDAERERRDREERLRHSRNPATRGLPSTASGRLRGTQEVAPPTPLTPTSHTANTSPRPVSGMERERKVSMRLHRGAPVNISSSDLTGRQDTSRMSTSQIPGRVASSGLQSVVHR

`COc1cc2ncnc(Oc3cccc(NC(=O)Nc4cc(C(C)(C)C(F)(F)F)on4)c3)c2cc1OC` showed a pKd (ABL1 (human)) of 8.55, a pKd (MST1R (human)) of 5.19 and a pKd (RPS6KA4 KD2 (human)) of 4.44. For the same compound, the pKd (CDC42BPB (human)) was 5.70, the pKd [1] was 8.38 and the pKd (AURKB (human)) was 4.60. For the same compound, the pKd (CSNK1D (human)) was 4.89, the pKd (TEK (human)) was 6.89 and the pKd [2] was 8.42. For the same compound, the pKd (MAP4K3 (human)) was 5.64, the pKd (BMX (human)) was 6.09 and the pKd (CaMK1 (human)) was 5.06. The pKd (MAP4K1 (human)) was 6.66, the pKd (MAPK11 (human)) was 7.82 and the pKd (MYLK2 (human)) was 5.12. It also gave a pKd (FGFR2 (human)) of 5.52, a pKd (RIOK2 (human)) of 4.44 and a pKd (CAMK1G (human)) of 4.52. For the same compound, the pKd (STK4 (human)) was 4.52, the pKd (PRKACA (human)) was 4.89 and the pKd (MERTK (human)) was 5.89. For the same compound, the pKd [3] was 5.36, the pKd (PTK2 (human)) was 5.12 and the pKd [4] was 5.68. For the same compound, the pKd (AXL (human)) was 5.57, the pKd (BTK (human)) was 5.05 and the pKd (AURKC (human)) was 5.00. The pKd (CDK11B (human)) was 6.57, the pKd (MAP2K4 (human)) was 4.74 and the pKd (HUNK (human)) was 4.92. The pKd (SIK2 (human)) was 4.62, the pKd (HCK (human)) was 7.89 and the pKd [5] was 8.59. For the same compound, the pKd (RPS6KA4 KD1 (human)) was 5.72, the pKd (CSNK1G1 (human)) was 4.44 and the pKd (CIT (human)) was 6.68. The pKd (PIK3CG (human)) was 4.52, the pKd [6] was 4.57 and the pKd (MAP3K10 (human)) was 5.25. For the same compound, the pKd (SYK (human)) was 6.59.
